Patent publication US7166440B2, “2,4,5-trichlorophenoxyalkyl carboxylic acid and a method for determining dioxins using the same” (priority 2003, dated 2007)
Like-named read-outs stand apart in the source and are kept apart here.

Key:
[1] = system: monoclonal antibody of clone C-2 (anti-dioxin antibody); assay: Competitive EIA: inhibition of binding of clone C-2 monoclonal antibody to solid-phase antigen by free dioxin; design: species or system mouse
Procedure: (§1) Using various monoclonal antibodies, the specificity of the monoclonal antibodies to dioxin isomers was examined. The monoclonal antibodies were prepared in the following manner. An antibody-producing cell was injected into the abdominal cavity of a pristane-pretreated mouse. Th ascites fluid in the abdominal cavity caused by the growth of the cells was collected, and then a monoclonal antibody was purified by affinity chromatography using a protein G-Sepharose (manufactured by BIO-RAD Co.) as a carrier. Using three antibody-producing clones C-1, C-2 and C-3, respective monoclonal antibodies were prepared. The clones C-1, C-2 and C-3 produce monoclonal antibodies with respect to dibenzodioxin having chlorine atom at the 2-, 3-, 7-, and 8-positions.
(§2) To evaluate the specificity of the monoclonal antibody was performed according to the following principles. A solid-phase antigen (competitor) and a free dioxin (ligand) are allowed to compete with each other with respect to a free monoclonal antibody (anti-dioxin antibody). If the reactivity of the monoclonal antibody and the dioxin is higher than that of the monoclonal antibody and the solid-phase antigen, the binding of the monoclonal antibody to the solid-phase antigen is reduced. This reduction of the binding of the monoclonal antibody to the solid-phase antigen can be measured by color development method. This phenomenon can be applied to evaluate the specificity.
(§3) First, the immune antigen or the compound (IIa) conjugated with BSA that was produced in Example 2 was diluted with PBS to 1 μg/ml, and divided into each well of a 96-well assay plate (manufactured by Costar, Cat. No. 3590) in an amount of 50 μl. Then, the plate was sealed and allowed to stand at room temperature for one hour. Then, each well was washed with PBS containing 0.005% of Tween 20 three times. Next, 300 μl of Block Ace (manufactured by Snow Brand Milk Products Co., Ltd.) diluted with distilled water to a concentration of 25% was supplied to each well, and the plate was sealed and allowed to stand at 37° C. for two hours. Each well was washed with PBS containing 0.005% of Tween 20 three times. Then, a 25 μl of the dioxin compound solution of a final concentration of 5×10^−7 M was added to each well. The dioxin compound solution was prepared by diluting the dioxin with a dilution solvent comprising 20% DMSO and 0.01% of Triton X100. As controls, a dilution solvent in an amount of 25 μl was added to each well. Immediately after the addition of the dioxin compound solution or the dilution solvent, 25 μl of an antibody solution diluted with PBS containing 1 mg/ml of BSA was added to each well. The assay plate was stand at room temperature for one hour with slightly shaking.
(§4) After washing with PBS containing 0.005% of Tween 20 three times, 50 μl of the diluted HRP-labeled goat anti-mouse IgG (H+L) antibody (produced by affinity purification) was added to each well. The diluted HRP-labeled antibody was prepared by diluting the purchased HRP-labeled antibody to 2000 times as much with 10% Block Ace. The plate was allowed to stand at room temperature for one hour, followed by washing with PBS containing 0.005% of Tween 20 three times. Then, 50 μl of a HRP substrate, TMB (manufactured by KPL Co., Ltd.), was added to each well and allowed to stand at room temperature for 5 to 10 min. Then, 5 μl of a 1 M phosphate solution was added to each well, and the absorbance at a wavelength of 455 nm (655 nm for the reference) was measured with a spectrophotometer for a microtiter. The reactivity was evaluated by obtaining the absorbance (B0) at the time when the dioxin compound is not added, which is a control (diluent) and the absorbance (B) at the time when the dioxin compound is added. The inhibition rate was measured based on the following equation. Inhibition rate={(B0−B)/B0}×100 (%)
(§5) Evaluation was such that the larger this inhibition rate is, the higher the specificity of the anti-dioxin antibody to the dioxin compound.

[2] = system: monoclonal antibody of clone C-3 (anti-dioxin antibody); assay: Competitive EIA: inhibition of binding of clone C-3 monoclonal antibody to solid-phase antigen by free dioxin; design: species or system mouse
Procedure: as §1, §2, §3, §4, §5

[3] = toxicity equivalent factor of the dioxins used; cited from earlier work
[4] = system: anti-dioxin antibody (monoclonal antibody) to 1,2,3,7,8-PeCDF; type: binding, mouse
Procedure: as §3, §4
An anti-dioxin antibody (monoclonal antibody) to 1,2,3,7,8-PeCDF is used as an antibody. A haptenized product of a solid-phase antigen 6-(2,4,5-trichlorophenoxy) hexanoic acid amide derivative (IIa) and the chlorine-containing organic compounds in Tables 2 and 3 were allowed to compete with each other to this anti-dioxin antibody so that a competitive reaction was effected in the same manner as in Example 3. Then, the cross-reactivity was examined.

[5] = system: monoclonal antibody of clone C-1 (anti-dioxin antibody); assay: Competitive EIA: inhibition of binding of clone C-1 monoclonal antibody to solid-phase antigen by free dioxin; design: species or system mouse
Procedure: as §1, §2, §3, §4, §5

[6] = solid-phase antigen * (haptenized product of 6-(2,4,5-trichlorophenoxy) hexanoic acid amide derivative IIa), dioxin compound 5×10^−7 M
[7] = solid-phase antigen immunogen 2, dioxin compound final concentration 5×10^−7 M
[8] = solid-phase antigen immunogen 3, dioxin compound final concentration 5×10^−7 M
[9] = Table 2, dioxins having TEF, solid-phase antigen (IIa), antibody to 1,2,3,7,8-PeCDF
[10] = solid-phase antigen immunogen 1, dioxin compound final concentration 5×10^−7 M
[11] = Table 3, other chlorine-containing organic compounds and polycyclic aromatic hydrocarbons, solid-phase antigen (IIa), antibody to 1,2,3,7,8-PeCDF

Compound	Inhibition rate [1, 6]	Inhibition rate [1, 7]	Inhibition rate [2, 6]	Inhibition rate [2, 8]	TEF value [3]	cross reaction [4, 9]	Inhibition rate [5, 6]	Inhibition rate [5, 10]	cross reaction [4, 11]	cross reaction [4]
Clc1cc2c(c(Cl)c1Cl)Oc1c(Cl)c(Cl)c(Cl)c(Cl)c1O2 [1,2,3,4,6,7,8-HpCDD]	−3.2%	−12.4%	2.1%	0.4%	0.01	17.0%	1.4%	1.5%		
Clc1cc2c(oc3c(Cl)c(Cl)c(Cl)c(Cl)c32)c(Cl)c1Cl [1,2,3,4,6,7,8-HpCDF]	51.4%	6.8%	3.4%	−2.7%	0.01	17.9%	7.5%	−0.9%		
Clc1cc2oc3c(Cl)c(Cl)c(Cl)c(Cl)c3c2c(Cl)c1Cl [1,2,3,4,7,8,9-HpCDF]	7.5%	27.7%	11.3%	6.1%	0.01	28.7%	7.1%	5.8%		
Clc1cc2c(cc1Cl)Oc1c(Cl)c(Cl)c(Cl)c(Cl)c1O2 [1,2,3,4,7,8-HxCDD]	19.1%	−9.4%	−2.3%	−2.5%	0.1	24.8%	14.1%	−1.4%		
Clc1cc2oc3c(Cl)c(Cl)c(Cl)c(Cl)c3c2cc1Cl [1,2,3,4,7,8-HxCDF]	−11.2%	5.2%	0.8%	4.9%	0.1	45.9%	−1.5%	3.3%		
Clc1cc2c(c(Cl)c1Cl)Oc1cc(Cl)c(Cl)c(Cl)c1O2 [1,2,3,6,7,8-HxCDD]	2.2%	−6.2%	6.7%	3.9%	0.1	18.0%	−0.3%	3.1%		
Clc1cc2c(oc3cc(Cl)c(Cl)c(Cl)c32)c(Cl)c1Cl [1,2,3,6,7,8-HxCDF]	5.0%	9.4%	4.1%	2.9%	0.1	36.6%	7.0%	3.5%		
Clc1cc2c(c(Cl)c1Cl)Oc1c(cc(Cl)c(Cl)c1Cl)O2 [1,2,3,7,8,9-HxCDD]	41.9%	30.6%	28.6%	6.7%	0.1	39.8%	19.1%	15.7%		
Clc1cc2oc3cc(Cl)c(Cl)c(Cl)c3c2c(Cl)c1Cl [1,2,3,7,8,9-HxCDF]	68.1%	43.3%	48.1%	10.4%	0.1	42.7%	34.7%	26.2%		
Clc1cc2c(cc1Cl)Oc1c(cc(Cl)c(Cl)c1Cl)O2 [1,2,3,7,8-PeCDD]	70.4%	45.7%	31.2%	5.4%	1	29.9%	46.2%	21.3%		
Clc1cc2oc3cc(Cl)c(Cl)c(Cl)c3c2cc1Cl [1,2,3,7,8-PeCDF]	68.6%	17.5%	23.2%	0.5%	0.05	100.0%	27.1%	11.8%	100.0%	
Clc1cccc(Cl)c1Cl [1,2,3-Trichlorobenzene]									<0.1%	
Clc1cc2c(oc3c(Cl)c(Cl)c(Cl)cc32)c(Cl)c1Cl [2,3,4,6,7,8-HxCDF]	82.8%	28.1%	47.9%	13.2%	0.1	43.8%	44.8%	31.1%		
Clc1cc2oc3c(Cl)c(Cl)c(Cl)cc3c2cc1Cl [2,3,4,7,8-PeCDF]	55.0%	40.2%	46.2%	13.0%		16.1%	40.1%	26.5%		
Oc1cc(Cl)c(Cl)cc1Cl [2,4,5-Trichlorophenol]									<0.1%	
Oc1ccc(Cl)cc1Cl [2,4-Dichlorophenol]									<0.1%	
Clc1cc(-c2cc(Cl)c(Cl)c(Cl)c2)cc(Cl)c1Cl [3,3′,4,4′,5,5′-HxCB]									<0.1%	

Compound	Inhibition rate [1, 6]	Inhibition rate [1, 7]	Inhibition rate [2, 6]	Inhibition rate [2, 8]	TEF value [3]	cross reaction [4, 9]	Inhibition rate [5, 6]	Inhibition rate [5, 10]	cross reaction [4, 11]	cross reaction [4]
Clc1ccc(-c2cc(Cl)c(Cl)c(Cl)c2)cc1Cl [3,3′,4,4′,5-PeCB]									<0.1%	
Clc1ccc(-c2ccc(Cl)c(Cl)c2)cc1Cl [3,3′,4,4′-TeCB]									<0.1%	
Oc1ccc(Cl)c(Cl)c1 [3,4-Dichlorophenol]									<0.1%	
c1ccc2cc3ccccc3cc2c1 [Anthracene]									<0.1%	
c1ccc2cc3c(ccc4ccccc43)cc2c1 [Benz[a]anthracene]									<0.1%	
c1ccc2c(c1)-c1cccc3c1c-2cc1ccccc13 [Benzo[b]fluoranthene]									<0.1%	
c1cc2ccc3ccc4ccc5cccc6c(c1)c2c3c4c56 [Benzo[ghi]perylene]									<0.1%	
c1ccc2cc3c(cc2c1)-c1cccc2cccc-3c12 [Benzo[k]fluoranthene]									<0.1%	
c1ccc2c(c1)ccc1c3ccccc3ccc21 [Chrysene]									<0.1%	
c1ccc2c(c1)-c1cccc3cccc-2c13 [Fluoranthene]										<0.1%
c1ccc2c(c1)Cc1ccccc1-2 [Fluorene]									<0.1%	
c1ccc2c(c1)-c1ccc3ccc4cccc5cc-2c1c3c45 [Indeno[1,2,3-cd]pyrene]									<0.1%	
c1ccc2ccccc2c1 [Naphthalene]									<0.1%	
c1ccc2c(c1)ccc1ccccc12 [Phenanthrene]									<0.1%	
c1cc2ccc3cccc4ccc(c1)c2c34 [Pyrene]									<0.1%	
Clc1cccc(Cl)c1 [m-Dichlorobenzene]									<0.1%	
Clc1ccc(-c2ccccc2)cc1 [p-chlorobiphenyl]									<0.1%	
